These results are taken from patent US20240272171A1, “Methods for Identification of Exchangeable MHC Binding Peptides and Methods of Use Thereof” (PhenomeX Inc., priority 2020, published 2024).

Assay [1] has as its target T1, HLA-A*02:01 (Homo sapiens, UniProt P04439, D140Y/D185E/D98H/E176V/E277Q/G131W/G231S/I119V/I121R/I166T/I218V/L300P/L318F/N151K/N90K/P208A/P217A/Q86G/Q94H/R138H/R169H/T345S). The assay is described as follows: Candidate in-place peptide exchange testing (loss of FITC signal, flow cytometry). Conditions: for exchange efficiency: FITC in-place peptide, 1 micromolar pHLA, 20 micromolar incoming peptide LMYAKRAFV, 10 mM GlyCha, room temperature, 4 hour; for suitability as in-place peptide (affinity and exchangeability): HLA-A*02:01, FIG. 29. The class given is binding. The text has this:
Candidate peptides with a FITC-modified Lysine at Position 4 or 5 shown in Table 6 were purchased from a peptide manufacturer (Genscript). The fluorescent peptides were loaded into recombinant, biotinylated HLA-A*02:01 by a contract manufacturer (Biolegend). […] The peptide-HLA (pHLA) concentration in the reactions was 1 micromolar. The incoming peptide concentration was 20 micromolar.
For the incoming peptide, the peptide sequence […] […] This may be used as a model for candidate antigenic peptides, which need to displace an in-place peptide stabilizing the MHC (e.g., loaded into the MHC complex), in methods of discovering antigenic peptides and methods of activating lymphocytes as described throughout the specification.
After four hours, exchanged, unexchanged and non-fluorescent biotinylated HLA complexes were loaded onto Streptavidin coated capture beads. The HLA complex coated beads were analyzed for FITC Fluorescence on a Flow Cytometer.

Assay [2] concerns the target T1, HLA-A*02:01. The assay is described as follows: Peptide switching on peptide-HLA-A*02:01 complex with DNP-labelled initial peptide (Example 21). Format: binding.
Method: To test binding of Immunogenic and Non-Immunogenic peptides to an MHC Class I complex, a peptide-HLA-A*02:01 complex with an initial peptide [sequence] […] The initial peptide included a dinitrophenyl (DNP) moiety conjugated to the lysine at position 5. Two peptide antigens were then tested for their ability to bind to the MHC Class I complex: [sequence] […] The peptides were resuspended in DMSO to 5 mg/mL. The peptides were then further diluted ten-fold in PBS. To set up 0.05 mL peptide switching reactions, 20 micromolar [sequence] […] In addition, a control peptide switching reaction using the peptide [sequence] […]
Samples of unswitched peptide-MHC and switched peptide-MHC were then captured on Streptavidin-coated DynaBeads (ThermoFisher). […] The peptide-MHC beads were then stored at 4° C. until they were analyzed for peptide exchange.
To quantify peptide exchange, a FITC-conjugated anti-DNP antibody specific for the DNP-conjugated initial peptide was added to a sample of each captured peptide-MHC. […] The staining for pre-assembled peptide and intact pHLA complexes were detected by Flow Cytometry on a FACSCelesta with High-Throughput Sampler (BD Biosciences). […] Approximately 5,000 bead events were recorded for each sample. The Median Fluorescence Intensity (MFI) in the APC and FITC channels of each sample was then recorded. […]
Assay [3] deals with T1, HLA-A*02:01. Nature of the assay: Peptide binding and stability under culture conditions (Example 22). Conditions: beads in T Cell Culture Media at 37° C.; W6/32 antibody MFI, exponential decay fit. Here is the method: To assess the stability of the pMHC Class I-peptide antigen complexes under the conditions that are used to culture T Cells, pMHC Class I complexes were first bound to beads. Biotinylated HLA-A*02:01 complexes loaded with either […] (SEQ ID NO: 5) or […] (SEQ ID NO: 6) peptides were diluted to 0.83 micrograms/mL in Assay Buffer (PBS with 2 mM EDTA and 0.1% Bovine Serum Albumin). To 0.6 mL of the pMHC solutions in microcentrifuge tubes, […] Streptavidin-coated DynaBeads (M-280, ThermoFisher) were added. The beads were mixed in the pMHC solution for 4 minutes at 2,000 rpm on a ThermoMixer (Eppendorf). The pMHC-beads were then captured on a magnetic rack, and the solution containing unbound pMHC removed by aspiration. 1 mL of Assay Buffer was added to the tubes, and then aspirated. The beads were then resuspended in 0.1 mL of Assay Buffer. The beads were then stored at 4° C. until use. […]
Antibody binding to the beads was then detected on a FACSCelesta with High-Throughput Sampler (BD Biosciences). […] Approximately 25,000 bead events were recorded for each sample. The Median Fluorescence Intensity (MFI) in the APC channel for the pHLA-beads in each sample was then recorded. […] The half-lives for the pHLA complexes were then calculated from the fitted decay constant.

For FLAIKKLYVG, the exchange efficiency entry on HLA-A*02:01 [1] is recorded as “about 0.65”.

Turning to GAATKMAAV, the “suitability as in-place peptide (affinity and exchangeability)” value at HLA-A*02:01 [1] is “most suitable in-place peptides”.

Consider GMGQKDSYV [ACTB (P60709) 46-54], for which, at HLA-A*02:01 [1], the exchange efficiency result is on record as “about 1.0”; the “suitability as in-place peptide (affinity and exchangeability)” value is “most suitable in-place peptides”.

On to “LMYAKRAFV [TBA1A (Q71U36) 397-405; used as initial peptide and as incoming/displacing peptide]”, for which, on HLA-A*02:01 [1], the exchange efficiency result was “about 0.30”.

On to “SLLPIMWQLY [Non-Immunogenic peptide antigen derived from TCL1] [listing 1 of 2 here]”, for which, in the assay with HLA-A*02:01 [2], the percent peptide switching result is on record as “about 90%”.

Regarding “SLLPIMWQLY [Non-Immunogenic peptide antigen derived from TCL1] [listing 2 of 2 here]”, the “half-life of peptide-HLA-A*02:01 complex” value in the assay with HLA-A*02:01 [3] is recorded as “about 0.5 hours”.

Turning to “SLYSYFQKV [Immunogenic peptide antigen derived from SLC45A2] [listing 1 of 2 here]”, in the assay with HLA-A*02:01 [2], the percent peptide switching result is recorded as “about 99%”.

As to “SLYSYFQKV [Immunogenic peptide antigen derived from SLC45A2] [listing 2 of 2 here]”, in the assay with HLA-A*02:01 [3], the “half-life of peptide-HLA-A*02:01 complex” value is on record as “about 17 hours”.
